Test results taken from US20240269139A1, “COMPOUNDS FOR TARGETED PROTEIN DEGRADATION OF KINASES” (DANA-FARBER CANCER INSTITUTE, INC., priority 2020, published 2024).
Like-named read-outs stand apart in the source and are kept apart here.

Columns and labels:
Type in all cases: cell-based
[1] = biological target: protein kinases (human kinome) (Homo sapiens, UniProt O43683); details: for logFC: BUB1 (O43683); for logFC BUB1 (O43683): direction down
[2] = biological target: protein kinases (human kinome) (Homo sapiens, UniProt P42684); details: for logFC: ABL2 (P42684) protein abundance, degrader vs DMSO, down
[3] = biological target: protein kinases (human kinome) (Homo sapiens, UniProt P53667); details: LIMK1 (P53667-1)
[4] = biological target: protein kinases (human kinome) (Homo sapiens, UniProt Q00535); details: for logFC of CDK5: Accession Q00535
[5] = biological target: T1, protein kinases (human kinome) (Homo sapiens, UniProt Q96L34); details: for logFC MARK4: Accession Q96L34-1
T1 sequence (Q96L34 1-752): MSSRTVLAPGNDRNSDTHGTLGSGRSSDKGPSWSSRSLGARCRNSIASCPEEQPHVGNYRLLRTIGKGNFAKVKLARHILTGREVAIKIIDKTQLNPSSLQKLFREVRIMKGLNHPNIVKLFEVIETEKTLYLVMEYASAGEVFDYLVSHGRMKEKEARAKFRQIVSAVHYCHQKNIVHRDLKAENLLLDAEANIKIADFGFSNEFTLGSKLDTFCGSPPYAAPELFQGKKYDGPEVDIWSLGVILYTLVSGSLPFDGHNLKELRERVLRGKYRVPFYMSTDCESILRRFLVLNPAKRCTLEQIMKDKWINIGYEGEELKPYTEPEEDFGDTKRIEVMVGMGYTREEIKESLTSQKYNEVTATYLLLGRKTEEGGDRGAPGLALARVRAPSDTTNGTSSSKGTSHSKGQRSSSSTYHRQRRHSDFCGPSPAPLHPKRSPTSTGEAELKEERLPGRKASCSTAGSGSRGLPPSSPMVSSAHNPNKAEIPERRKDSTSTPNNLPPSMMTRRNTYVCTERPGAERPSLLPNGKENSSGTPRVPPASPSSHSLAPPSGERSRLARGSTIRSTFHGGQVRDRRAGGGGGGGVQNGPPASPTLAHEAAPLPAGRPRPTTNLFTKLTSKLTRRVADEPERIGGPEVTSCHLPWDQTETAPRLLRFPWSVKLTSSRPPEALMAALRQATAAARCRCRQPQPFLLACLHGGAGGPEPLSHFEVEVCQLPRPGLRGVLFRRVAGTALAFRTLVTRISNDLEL

[6] = biological target: protein kinases (human kinome) (Homo sapiens, UniProt Q00537); details: for logFC of CDK17: Accession Q00537; for logFC CDK17 (Q00537): direction of change down
[7] = direction down, experiment wp168
[8] = experiment wp146, direction of change down

protein kinases (human kinome) (Homo sapiens, UniProt O43683), sequence (O43683 whole entry): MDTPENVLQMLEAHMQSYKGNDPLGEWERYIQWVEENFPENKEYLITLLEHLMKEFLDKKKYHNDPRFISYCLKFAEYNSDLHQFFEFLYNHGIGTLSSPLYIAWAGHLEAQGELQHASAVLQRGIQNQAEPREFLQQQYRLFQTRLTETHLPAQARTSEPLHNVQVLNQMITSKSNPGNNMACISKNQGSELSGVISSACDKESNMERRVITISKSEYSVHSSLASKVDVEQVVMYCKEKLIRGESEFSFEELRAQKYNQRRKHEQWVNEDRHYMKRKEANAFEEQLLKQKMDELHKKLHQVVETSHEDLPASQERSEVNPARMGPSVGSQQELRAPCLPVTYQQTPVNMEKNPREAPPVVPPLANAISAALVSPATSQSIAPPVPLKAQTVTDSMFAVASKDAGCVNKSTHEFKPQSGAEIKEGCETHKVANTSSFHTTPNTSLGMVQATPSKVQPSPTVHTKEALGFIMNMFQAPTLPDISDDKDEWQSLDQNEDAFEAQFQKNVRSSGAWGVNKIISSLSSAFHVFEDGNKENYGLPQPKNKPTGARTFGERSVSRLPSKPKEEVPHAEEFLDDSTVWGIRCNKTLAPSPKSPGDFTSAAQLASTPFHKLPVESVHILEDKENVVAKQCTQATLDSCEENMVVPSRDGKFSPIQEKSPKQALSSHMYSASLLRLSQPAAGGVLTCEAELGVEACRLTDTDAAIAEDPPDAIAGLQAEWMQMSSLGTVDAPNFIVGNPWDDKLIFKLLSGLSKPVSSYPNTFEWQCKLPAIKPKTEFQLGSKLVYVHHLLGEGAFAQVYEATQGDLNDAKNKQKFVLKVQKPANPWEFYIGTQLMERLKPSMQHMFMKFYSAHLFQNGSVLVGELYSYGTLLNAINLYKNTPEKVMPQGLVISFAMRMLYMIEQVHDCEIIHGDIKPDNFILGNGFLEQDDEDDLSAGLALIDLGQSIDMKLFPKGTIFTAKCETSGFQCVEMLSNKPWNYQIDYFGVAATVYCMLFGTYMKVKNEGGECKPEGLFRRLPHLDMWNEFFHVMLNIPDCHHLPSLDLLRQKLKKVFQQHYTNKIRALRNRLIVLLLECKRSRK
protein kinases (human kinome) (Homo sapiens, UniProt P53667), sequence (P53667 whole entry): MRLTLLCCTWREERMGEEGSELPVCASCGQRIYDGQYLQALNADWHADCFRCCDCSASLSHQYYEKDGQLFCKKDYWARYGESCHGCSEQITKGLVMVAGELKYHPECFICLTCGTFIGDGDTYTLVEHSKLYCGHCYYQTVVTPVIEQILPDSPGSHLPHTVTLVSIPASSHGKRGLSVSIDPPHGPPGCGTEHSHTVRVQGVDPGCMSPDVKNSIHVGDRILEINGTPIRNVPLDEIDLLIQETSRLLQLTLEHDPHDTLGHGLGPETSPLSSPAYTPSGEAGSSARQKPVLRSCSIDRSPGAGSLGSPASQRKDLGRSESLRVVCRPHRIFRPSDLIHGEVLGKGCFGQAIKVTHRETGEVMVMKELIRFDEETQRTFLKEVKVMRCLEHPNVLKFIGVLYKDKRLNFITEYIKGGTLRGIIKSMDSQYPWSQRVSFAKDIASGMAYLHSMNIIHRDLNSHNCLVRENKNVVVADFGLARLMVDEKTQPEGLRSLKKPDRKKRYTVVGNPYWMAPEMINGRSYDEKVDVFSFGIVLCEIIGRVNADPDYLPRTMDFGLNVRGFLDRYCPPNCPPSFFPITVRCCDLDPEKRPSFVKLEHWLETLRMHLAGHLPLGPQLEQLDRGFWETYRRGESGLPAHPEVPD
protein kinases (human kinome) (Homo sapiens, UniProt Q00535), sequence (Q00535 whole entry): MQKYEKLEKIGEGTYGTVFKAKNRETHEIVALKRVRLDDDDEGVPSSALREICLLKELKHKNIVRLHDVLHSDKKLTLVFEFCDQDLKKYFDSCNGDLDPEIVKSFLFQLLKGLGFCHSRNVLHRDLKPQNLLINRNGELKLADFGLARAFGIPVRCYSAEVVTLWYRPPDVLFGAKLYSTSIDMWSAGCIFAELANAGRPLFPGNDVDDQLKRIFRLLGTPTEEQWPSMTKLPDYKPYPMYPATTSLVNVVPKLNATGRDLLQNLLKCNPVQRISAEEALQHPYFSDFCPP
protein kinases (human kinome) (Homo sapiens, UniProt P42684), sequence (P42684 whole entry): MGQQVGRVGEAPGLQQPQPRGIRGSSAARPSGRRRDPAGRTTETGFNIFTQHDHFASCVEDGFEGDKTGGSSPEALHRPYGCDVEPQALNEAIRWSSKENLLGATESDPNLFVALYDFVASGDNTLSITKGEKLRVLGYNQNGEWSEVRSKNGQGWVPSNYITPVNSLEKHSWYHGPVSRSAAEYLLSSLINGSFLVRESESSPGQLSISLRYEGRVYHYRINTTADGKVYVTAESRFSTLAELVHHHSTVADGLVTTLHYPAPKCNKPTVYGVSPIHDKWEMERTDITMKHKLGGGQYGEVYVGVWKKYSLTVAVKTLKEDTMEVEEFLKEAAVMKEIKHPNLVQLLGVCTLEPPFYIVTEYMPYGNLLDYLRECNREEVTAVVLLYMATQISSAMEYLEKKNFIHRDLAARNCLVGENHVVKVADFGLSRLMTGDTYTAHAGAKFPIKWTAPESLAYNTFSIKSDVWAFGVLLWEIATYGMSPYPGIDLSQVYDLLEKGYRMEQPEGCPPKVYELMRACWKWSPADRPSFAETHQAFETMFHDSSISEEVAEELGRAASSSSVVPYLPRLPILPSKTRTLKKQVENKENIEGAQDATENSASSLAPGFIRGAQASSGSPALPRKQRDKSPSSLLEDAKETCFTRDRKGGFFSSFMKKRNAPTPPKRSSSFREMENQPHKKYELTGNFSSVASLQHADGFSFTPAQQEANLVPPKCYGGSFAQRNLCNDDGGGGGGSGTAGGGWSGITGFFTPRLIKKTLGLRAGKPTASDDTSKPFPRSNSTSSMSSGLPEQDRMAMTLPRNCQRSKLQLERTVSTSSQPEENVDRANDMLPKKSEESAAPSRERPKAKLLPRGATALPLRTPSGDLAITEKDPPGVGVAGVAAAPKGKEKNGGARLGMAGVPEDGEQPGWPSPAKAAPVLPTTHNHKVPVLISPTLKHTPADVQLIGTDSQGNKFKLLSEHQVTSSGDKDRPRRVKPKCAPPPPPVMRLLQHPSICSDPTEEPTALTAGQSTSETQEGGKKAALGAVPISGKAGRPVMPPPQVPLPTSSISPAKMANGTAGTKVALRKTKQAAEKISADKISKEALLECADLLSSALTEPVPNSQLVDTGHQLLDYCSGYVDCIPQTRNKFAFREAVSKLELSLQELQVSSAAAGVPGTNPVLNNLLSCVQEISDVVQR
protein kinases (human kinome) (Homo sapiens, UniProt Q00537), sequence (Q00537 whole entry): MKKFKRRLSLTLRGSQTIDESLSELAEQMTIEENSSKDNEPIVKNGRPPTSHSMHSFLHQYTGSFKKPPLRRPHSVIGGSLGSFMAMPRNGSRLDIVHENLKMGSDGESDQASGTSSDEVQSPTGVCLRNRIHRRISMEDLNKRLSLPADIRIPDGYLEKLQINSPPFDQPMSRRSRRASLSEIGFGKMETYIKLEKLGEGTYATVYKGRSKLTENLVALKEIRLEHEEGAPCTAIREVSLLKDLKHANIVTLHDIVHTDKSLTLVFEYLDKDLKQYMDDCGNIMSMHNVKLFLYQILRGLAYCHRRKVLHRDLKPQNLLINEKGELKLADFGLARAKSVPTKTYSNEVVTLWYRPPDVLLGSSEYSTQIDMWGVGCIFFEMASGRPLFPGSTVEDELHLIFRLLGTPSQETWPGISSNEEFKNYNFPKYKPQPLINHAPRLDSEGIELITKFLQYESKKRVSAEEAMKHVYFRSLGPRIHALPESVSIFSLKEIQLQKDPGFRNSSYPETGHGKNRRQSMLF

Cc1ccc(NC(=O)c2cccc(C(F)(F)F)c2)cc1N1Cc2cnc(Nc3ccc(N4CCN(CCCOc5cccc6c5C(=O)N(C5CCC(=O)NC5=O)C6=O)CC4)nc3)nc2N(C)C1=O (stereo not drawn) [DB0662]
logFC ([1]; experiment wp168): −0.3382 | logFC BUB1 (O43683) ([1]; Experiment wp168): −0.3382 | logFC [2]: −1.207 | logFC ABL2 (P42684) ([2]; Experiment wp168): −1.207 | logFC LIMK1 [3, 7]: −1.911 | logFC LIMK1 ([3]; experiment wp168, down): −1.911

CC(C)S(=O)(=O)c1ccccc1Nc1nc(Nc2ccc(N3CCN(CCOCCOCCC(=O)NCCNc4cccc5c4CN(C4CCC(=O)NC4=O)C5=O)CC3)cc2)ncc1Cl (stereo not drawn) [TL13.97]
logFC CDK5 (Q00535) ([4]; experiment wp137): −1.114 | logFC CDK5 (Q00535) ([4]; experiment wp137, direction of change down): −1.114 | logFC MARK4 ([5]; experiment wp137): −1.74 | logFC MARK4 (Q96L34-1) ([5]; experiment wp137): −1.74 | logFC [2]: −0.5116 | logFC ABL2 (P42684) ([2]; experiment wp137): −0.5116 | logFC LIMK1 ([3]; direction down, experiment wp137): −1.173 | logFC LIMK1 ([3]; experiment wp137, down): −1.173

Cc1cnc(Nc2ccc(N3CCN(CCCCCCC(=O)N[C@H](C(=O)N4C[C@H](O)C[C@H]4C(=O)N[C@@H](C)c4ccc(-c5scnc5C)cc4)C(C)(C)C)CC3)cc2)nc1Nc1cccc(S(=O)(=O)NC(C)(C)C)c1 [JWG.123]
logFC MARK4 ([5]; experiment wp195): −1.532 | logFC MARK4 (Q96L34-1) ([5]; Experiment wp195): −1.532

Cc1ccc(C(=O)Nc2ccc(CN3CCN(CCOCCOCCNC(=O)CNc4cccc5c4C(=O)N(C4CCC(=O)NC4=O)C5=O)CC3)c(C(F)(F)F)c2)cc1C#Cc1cnc2cccnn12 (stereo not drawn) [TL13.150]
logFC of CDK5 ([4]; experiment wp081): −0.3786 | logFC CDK5 (Q00535) ([4]; experiment wp081, direction of change down): −0.3786

Cc1cc(Nc2ncc(Br)c(Nc3cccc(F)c3C(N)=O)n2)ccc1S(=O)(=O)NCCOCCOCCOCCOCCNc1cccc2c1C(=O)N(C1CCC(=O)NC1=O)C2=O (stereo not drawn) [TMX.02.174]
logFC CDK5 (Q00535) ([4]; experiment wp146): −3.161 | logFC CDK5 (Q00535) [4, 8]: −3.161 | logFC of CDK17 ([6]; experiment wp146): −1.42 | logFC CDK17 (Q00537) ([6]; experiment wp146): −1.42

NC(=O)c1c(F)cccc1Nc1nc(Nc2ccc(S(=O)(=O)NCCOCCOCCOCCOCCNc3cccc4c3C(=O)N(C3CCC(=O)NC3=O)C4=O)cc2)ncc1Br (stereo not drawn) [TMX.02.138]
logFC CDK5 (Q00535) ([4]; experiment wp146): −3.29 | logFC CDK5 (Q00535) [4, 8]: −3.29 | logFC of CDK17 ([6]; experiment wp146): −1.361 | logFC CDK17 (Q00537) ([6]; experiment wp146): −1.361

Cn1c(=O)c(-c2c(Cl)cccc2Cl)cc2cnc(Nc3ccc(OCCNC(=O)CCCCCCNC(=O)COc4cccc5c4C(=O)N(C4CCC(=O)NC4=O)C5=O)cc3)nc21 (stereo not drawn) [SB1.G.192.1]
logFC [2]: −2.44 | logFC ABL2 (P42684) ([2]; experiment wp071): −2.44

Cc1ncsc1-c1ccc([C@H](C)NC(=O)[C@@H]2C[C@@H](O)CN2C(=O)[C@@H](NC(=O)CCCCCN2CCc3cc(Nc4ncc(C5CC5)c(NCCCNC(=O)C5CCC5)n4)ccc3C2)C(C)(C)C)cc1 [BSJ.05.026]
logFC MARK4 ([5]; experiment wp195): −1.571 | logFC MARK4 (Q96L34-1) ([5]; Experiment wp195): −1.571

Cc1ncsc1-c1ccc([C@H](C)NC(=O)[C@@H]2C[C@@H](O)CN2C(=O)[C@@H](NC(=O)CCCCCN2CCN(c3ccc(Nc4ncc5scc(-c6cccc(NS(C)(=O)=O)c6)c5n4)cc3)CC2)C(C)(C)C)cc1 [RSS0680, (2S,4R)-1-((S)-3,3-Dimethyl-2-(6-(4-(4-((7-(3-(methylsulfonamido)phenyl)thieno[3,2-d]pyrimidin-2-yl)amino)phenyl)piperazin-1-yl)hexanamido)butanoyl)-4-hydroxy-N—((S)-1-(4-(4-methylthiazol-5yl)phenyl)ethyl)pyrrolidine-2-carboxamide]
logFC of CDK17 ([6]; experiment wp080): −0.7875 | logFC of CDK17 ([6]; experiment wp117): −0.7193 | logFC CDK17 (Q00537) ([6]; experiment wp080): −0.7875 | logFC CDK17 (Q00537) ([6]; experiment wp117): −0.7193 | logFC MARK4 ([5]; experiment wp080): −0.4537 | logFC MARK4 (Q96L34-1) ([5]; experiment wp080): −0.4537

CCc1cnn2c(N(Cc3ccc(N)nc3)C(=O)CCOCCOCCOCCNC(=O)CNc3cccc4c3C(=O)N(C3CCC(=O)NC3=O)C4=O)cc(N3CCCC[C@H]3CCO)nc12 (stereo partly drawn) [MFH.5.115.2]
logFC ([1]; experiment wp076): −0.5159 | logFC BUB1 (O43683) ([1]; Experiment wp076): −0.5159

Cc1ccc(NC(=O)c2cccc(C(F)(F)F)c2)cc1N1Cc2cnc(Nc3ccc(N4CCN(CCCCCCOc5cccc6c5C(=O)N(C5CCC(=O)NC5=O)C6=O)CC4)nc3)nc2N(C)C1=O (stereo not drawn) [DB0663]
logFC [2]: −0.6022 | logFC ABL2 (P42684) ([2]; Experiment wp045): −0.6022

CC(C)S(=O)(=O)c1ccccc1Nc1nc(Nc2ccc(N3CCN(CCOCCNC(=O)CNc4ccc5c(c4)C(=O)N(C4CCC(=O)NC4=O)C5=O)CC3)cc2)ncc1Cl (stereo not drawn) [SK.3.93]
logFC of CDK5 ([4]; experiment wp016): −0.9703 | logFC CDK5 (Q00535) ([4]; experiment wp016, direction of change down): −0.9703 | logFC of CDK17 ([6]; experiment wp016): −0.7103 | logFC CDK17 (Q00537) ([6]; experiment wp016): −0.7103 | logFC [2]: −0.5278 | logFC ABL2 (P42684) ([2]; experiment wp016): −0.5278

Cc1ncsc1-c1ccc([C@H](C)NC(=O)[C@@H]2C[C@@H](O)CN2C(=O)[C@@H](NC(=O)CCOCCOCCN2CCN(c3ccc(Nc4ncc(Cl)c(Nc5ccccc5S(=O)(=O)C(C)C)n4)cc3)CC2)C(C)(C)C)cc1 [FMF.06.098.1]
logFC MARK4 ([5]; experiment wp108): −0.9041 | logFC MARK4 ([5]; experiment wp114): −0.7224 | logFC MARK4 ([5]; experiment wp131): −1.111 | logFC MARK4 (Q96L34-1) ([5]; Experiment wp108): −0.9041 | logFC MARK4 (Q96L34-1) ([5]; experiment wp114): −0.7224 | logFC MARK4 (Q96L34-1) ([5]; experiment wp131): −1.111

Cc1ccc(NC(=O)c2cccc(C(F)(F)F)c2)cc1N1Cc2cnc(Nc3ccc(N4CCN(CCCCC(=O)N[C@H](C(=O)N5C[C@H](O)C[C@H]5C(=O)N[C@@H](C)c5ccc(-c6scnc6C)cc5)C(C)(C)C)CC4)nc3)nc2N(C)C1=O [DB1113]
logFC [2]: −1.723 | logFC ABL2 (P42684) ([2]; Experiment wp168): −1.723 | logFC LIMK1 [3, 7]: −1.144 | logFC LIMK1 ([3]; experiment wp168, down): −1.144

O=C1CCC(N2C(=O)c3cccc(NCCCCCCCCN4CCC(NC(=O)c5[nH]ncc5NC(=O)c5c(Cl)cccc5Cl)CC4)c3C2=O)C(=O)N1 (stereo not drawn) [MFH.5.126.1]
logFC ([1]; experiment wp076): −0.9248 | logFC BUB1 (O43683) ([1]; Experiment wp076): −0.9248 | logFC of CDK17 ([6]; experiment wp076): −0.5894 | logFC CDK17 (Q00537) ([6]; Experiment wp076): −0.5894

O=C(COc1cccc2c1C(=O)N(C1CCC(=O)NC1=O)C2=O)NCCCCCCCN1CCc2cc(Nc3ncc(C4CC4)c(NCCCNC(=O)C4CCC4)n3)ccc2C1 (stereo not drawn) [BSJ.04.178]
logFC MARK4 ([5]; experiment wp134): −0.993 | logFC MARK4 (Q96L34-1) ([5]; experiment wp134): −0.993

CC(C)S(=O)(=O)c1ccccc1Nc1nc(Nc2ccc(N3CCN(CCOCCNC(=O)CNc4cccc5c4C(=O)N(C4CCC(=O)NC4=O)C5=O)CC3)cc2)ncc1Cl (stereo not drawn) [SK-3-91]
BUB1 degradation ([1]; MOLT-4 and MM.1S cell lines): degraded
